The text below walks through data of paper PMC6269039, “Synthesis and Cytotoxicity Testing of New Amido-Substituted Triazolopyrrolo[2,1-c][1,4]benzodiazepine (PBDT) Derivatives” (Molecules, 2012).

As a reminder, the melting point is the temperature of the solid-liquid transition. The term viability denotes the share of living cells, or the viability signal relative to a control. By IC50 is commonly meant the concentration needed to halve the response being measured.

Data set [1] deals with Mahlavu cells. As to the kind of experiment: cells. The settings on record: Homo sapiens, 48 h; for viability at 100 µM: read-out: percentage of viable Mahlavu cells (cell viability); for IC50: read-out: IC50 for Mahlavu cells.
Description: (§1) The cytotoxic activities of the newly synthesized amido-substituted triazolopyrrolo [2,1-c][1,4]benzodiazepines PBDT-7a–k were tested against Mahlavu and MRC-5 cells. After incubation of the cells with the compounds at concentrations of 3.12, 6.25, 12.50, 25.0, 50.0 and 100 µM for 48 h, the cell growth and viability were assessed by using CCK-8 assay.
(§2) Human hepatocellular carcinoma (Mahlavu) epithelial cells were used for cell culture experiments. Cells were cultured with 90% Dulbecco’s modified Eagle’s medium with 10% fetal bovine serum, 100 U/mL penicillin, and 100 μg/mL streptomycin. The cells were placed in an incubator to maintain high humidity, a temperature of 37 °C, and 5% CO2 for cell culture experiments. Cells were routinely sub-passaged in a 1:4 to 1:6 split using 0.25% trypsin.
(§3) The cell viability was determined using a CCK-8 assay following the manufacturer’s instructions. Mahlavu cells and MRC-5 cells were seeded in 96-well plates and allowed to attach overnight at 37 °C. Cells were treated with PBDT-7a–k in 0.1% FBS MEM or DMEM (100 μL/well), and the cells were incubated for 48 h in a humidified atmosphere. After the incubation period, 10 μL of cell Counting Kit-8 solution was added to the medium, and the cells were incubated for an additional 1–4 h in the incubator. The absorbance at 450 nm was then measured using a microplate reader. The IR was calculated using the following equation: IR = [1 − (A value for the treated samples − A value for the blank samples)/(A value for the control samples − A value for the blank samples)] × 100%. The assays were performed in triplicate and repeated at least twice.
(§4) Mahlavu cells were treated with PBDT-7 series compounds for 48 h, and survival was assessed using a CCK-8 assay (mean ± SEM, n = 6).
Data set [2] deals with Mahlavu cells. The settings on record: 48 h, CCK-8; for effect on viability of Mahlavu cells, in words: 100 µM.
Description: as §1, §2, §3, §4
The subject of the next data set is MRC-5 cells. In words: CCK-8 cytotoxicity assay, MRC-5 cells. The settings on record: 48 h. (In general: Tetrazolium dyes change colour on reduction, which living cells bring about.)
The next data set can be described thus: in vitro. The settings on record: human.

Description for MRC-5 cells: (§5) After incubation of the cells with the compounds at concentrations of 3.12, 6.25, 12.50, 25.0, 50.0 and 100 µM for 48 h, the cell growth and viability were assessed by using CCK-8 assay.
(§6) Human fibroblast cells (MRC-5) cells were used for cell culture experiments. Cells were cultured with 90% Eagle’s minimum essential medium with 2 mM L-glutamine and Earle’s BSS adjusted to contain 1.5 g/L sodium bicarbonate, 0.1 mM non-essential amino acids, 1.0 mM sodium pyruvate with 10% fetal bovine serum, 100 U/mL penicillin, and 100 μg/mL streptomycin. The cells were placed in an incubator to maintain high humidity, 37 °C, and 5% CO2 for the cell culture experiments. Cells were routinely sub-passaged in a 1:2 to 1:5 split using 0.25% trypsin.
(§7) The cell viability was determined using a CCK-8 assay following the manufacturer’s instructions. Mahlavu cells and MRC-5 cells were seeded in 96-well plates and allowed to attach overnight at 37 °C. […] After the incubation period, 10 μL of cell Counting Kit-8 solution was added to the medium, and the cells were incubated for an additional 1–4 h in the incubator. The absorbance at 450 nm was then measured using a microplate reader. The IR was calculated using the following equation: IR = [1 − (A value for the treated samples − A value for the blank samples)/(A value for the control samples − A value for the blank samples)] × 100%. The assays were performed in triplicate and repeated at least twice.
Description for in vitro: as §5, §6, §7

Turning to `O=C(Nc1nnc2n1-c1ccccc1C(=O)N1CCC[C@@H]21)c1cccc(F)c1` [PBDT-7d, 3-Fluoro-N-((13aS)-9-oxo-11,12,13,13a-tetrahydro-9H-benzo[e]pyrrolo[1,2-a][1,2,4]triazolo[3,4-c][1,4]diazepin-3-yl)benzamide], the melting point was in the range of 159 to 160 °C. In addition, in the data set on Mahlavu cells [1], the viability at 100 µM was roughly 61%.

For the molecule `O=C(Nc1nnc2n1-c1ccccc1C(=O)N1CCC[C@@H]21)c1cccc(C(F)(F)F)c1` [PBDT-7i, N-((13aS)-9-Oxo-11,12,13,13a-tetrahydro-9H-benzo[e]pyrrolo[1,2-a][1,2,4]triazolo[3,4-c][1,4]diazepin-3-yl)-3-(trifluoromethyl)benzamide], the “inhibition of Mahlavu cells, in words” value with Mahlavu cells [2] is given as “selectively inhibit the growth”. For the same molecule, in the data set on Mahlavu cells [1], the half-inhibitory concentration (IC50) was found to be 50 µM and the viability at 100 µM came to 2%. The “toxicity to MRC-5 (normal) cells, in words” value in the data set on MRC-5 cells is reported as “low-toxic”.

For the molecule `O=C(Nc1nnc2n1-c1ccccc1C(=O)N1CCC[C@@H]21)c1cccs1` [PBDT-7k, N-((13aS)-9-Oxo-11,12,13,13a-tetrahydro-9H-benzo[e]pyrrolo[1,2-a][1,2,4]triazolo[3,4-c][1,4]diazepin-3-yl)thiophene-2-carboxamide], the melting point fell in the range of 185 to 186 °C. For the same molecule, in the data set with Mahlavu cells [1], the viability at 100 µM is greater than 75%. In addition, the viability at 48 h, 100 µM in “in vitro” is greater than 75%.

In the case of `O=C(Nc1nnc2n1-c1ccccc1C(=O)N1CCC[C@@H]21)c1ccccc1` [PBDT-7b, N-((13aS)-9-Oxo-11,12,13,13a-tetrahydro-9H-benzo[e]pyrrolo[1,2-a][1,2,4]triazolo[3,4-c][1,4]diazepin-3-yl)benzamide], the melting point was in the range of 173 to 175 °C. Further, the viability at 100 µM in the data set on Mahlavu cells [1] is greater than 75%. In “in vitro”, this molecule had a viability at 48 h, 100 µM greater than 75%.

`O=C(Nc1nnc2n1-c1ccccc1C(=O)N1CCC[C@@H]21)c1cccc(Cl)c1` [PBDT-7h, 3-Chloro-N-((13aS)-9-oxo-11,12,13,13a-tetrahydro-9H-benzo[e]pyrrolo[1,2-a][1,2,4]triazolo[3,4-c][1,4]diazepin-3-yl)benzamide]: the “survival rate of Mahlavu cells” value in the data set on Mahlavu cells [2] (50 µM) was “below 50%”. Also, in the data set on Mahlavu cells [2], the “inhibition of Mahlavu cells, in words” value is “potent inhibitor”. The “toxicity to MRC-5 (normal) cells, in words” value with MRC-5 cells is given as “highly toxic”.

With `N#Cc1cccc(C(=O)Nc2nnc3n2-c2ccccc2C(=O)N2CCC[C@@H]32)c1` [PBDT-7g, 3-Cyano-N-((13aS)-9-oxo-11,12,13,13a-tetrahydro-9H-benzo[e]pyrrolo[1,2-a][1,2,4]triazolo[3,4-c] [1,4]diazepin-3-yl)benzamide], the melting point fell in the range of 245 to 246 °C. For the same molecule, in the data set with Mahlavu cells [1], the IC50 is 50 µM and the viability at 100 µM turned out to be 36%.

For the molecule `O=C(Nc1nnc2n1-c1ccccc1C(=O)N1CCC[C@@H]21)c1ccccc1F` [PBDT-7c, 2-Fluoro-N-((13aS)-9-oxo-11,12,13,13a-tetrahydro-9H-benzo[e]pyrrolo[1,2-a][1,2,4]triazolo[3,4-c][1,4]diazepin-3-yl)benzamide], the “effect on viability of Mahlavu cells, in words” value with Mahlavu cells [2] is “little effect”.

The molecule `COc1cccc(C(=O)Nc2nnc3n2-c2ccccc2C(=O)N2CCC[C@@H]32)c1` [PBDT-7f, 3-Methoxy-N-((13aS)-9-oxo-11,12,13,13a-tetrahydro-9H-benzo[e]pyrrolo[1,2-a][1,2,4]triazolo[3,4-c][1,4]diazepin-3-yl)benzamide] gave a melting point of 168 to 170 °C. Moreover, in the data set on Mahlavu cells [1], the viability at 100 µM was determined as 37%.

`O=C(Nc1nnc2n1-c1ccccc1C(=O)N1CCC[C@@H]21)c1cccnc1` [PBDT-7j, N-((13aS)-9-Oxo-11,12,13,13a-tetrahydro-9H-benzo[e]pyrrolo[1,2-a][1,2,4]triazolo[3,4-c][1,4]diazepin-3-yl)nicotinamide]: the melting point stood at 225 °C. The viability at 100 µM with Mahlavu cells [1] was greater than 75%. In “in vitro”, this molecule returned a viability at 48 h, 100 µM greater than 75%.

On to `O=C(Nc1nnc2n1-c1ccccc1C(=O)N1CCC[C@@H]21)c1ccc(F)cc1` [PBDT-7e, 4-Fluoro-N-((13aS)-9-oxo-11,12,13,13a-tetrahydro-9H-benzo[e]pyrrolo[1,2-a][1,2,4]triazolo[3,4-c][1,4]diazepin-3-yl)benzamide], for which, in the data set on Mahlavu cells [2], the “effect on viability of Mahlavu cells, in words” value was “little effect”.

Take `CC(C)(C)C(=O)Nc1nnc2n1-c1ccccc1C(=O)N1CCC[C@@H]21` [PBDT-7a, ((13aS)-9-Oxo-11,12,13,13a-tetrahydro-9H-benzo[e]pyrrolo[1,2-a][1,2,4]triazolo[3,4-c][1,4]diazepin-3-yl)pivalamide]: the melting point lay in the range of 213 to 215 °C. Moreover, the viability at 100 µM in the data set with Mahlavu cells [1] is greater than 75%. This molecule displayed a viability at 48 h, 100 µM in the data set “in vitro” greater than 75%.
